# In PMC6941952, “A homogeneous bioluminescent immunoassay to probe cellular signaling pathway regulation” (Communications Biology, 2020):
# Values joined by “and” are separate entries in the source; they are usually repeats but may differ in a detail not shown here. Equal values may be shown once. Read-outs that look alike come from different tables or passages of the source.
# Biological target: T1, estrogen receptors (ER) (Homo sapiens, UniProt P03372)
# T1 sequence (P03372 1-595): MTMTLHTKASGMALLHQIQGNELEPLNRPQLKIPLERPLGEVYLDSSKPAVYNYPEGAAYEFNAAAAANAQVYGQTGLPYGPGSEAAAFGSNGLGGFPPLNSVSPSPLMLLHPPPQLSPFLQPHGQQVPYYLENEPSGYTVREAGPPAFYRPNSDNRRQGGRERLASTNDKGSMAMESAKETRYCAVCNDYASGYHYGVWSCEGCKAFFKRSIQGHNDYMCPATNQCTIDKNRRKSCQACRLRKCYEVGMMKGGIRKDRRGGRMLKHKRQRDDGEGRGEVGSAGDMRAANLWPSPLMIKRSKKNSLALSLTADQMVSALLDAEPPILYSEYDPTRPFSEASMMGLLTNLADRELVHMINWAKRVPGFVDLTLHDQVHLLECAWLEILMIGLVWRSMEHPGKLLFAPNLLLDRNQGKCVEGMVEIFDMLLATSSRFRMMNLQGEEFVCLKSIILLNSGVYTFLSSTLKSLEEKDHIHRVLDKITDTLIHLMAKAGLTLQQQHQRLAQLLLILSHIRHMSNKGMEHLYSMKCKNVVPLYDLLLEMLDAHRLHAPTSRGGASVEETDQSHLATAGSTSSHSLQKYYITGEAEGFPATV
# Details: 4 h; for Total ER protein (%) / protein (%) ER: replicate
# Procedure: Prior to NanoBiT Cell-Based Immunoassay, 50,000 cells were seeded in 160 µl of complete growth media per well of a 96-well plate and incubated overnight. […] If necessary, the cell culture media were replaced with serum-free media after the cells were stably adherent on the plate and incubated overnight. To treat cells with activators or inhibitors, medium was changed to 30 µl of medium containing inhibitors. If activation of a specific pathway is needed, the cells were stimulated with 10 µl of medium containing activators. To lyse the cells, 10 µl of lysis buffer containing 0.1% digitonin diluted in 1X immunoassay buffer with protease and phosphatase inhibitors was added and the plates were mixed vigorously for 20 min. Then, 50 µl of an antibody mix containing two primary antibodies against the target protein and NanoBiT detecting antibodies (0.3 µl each per well), diluted in 1X immunoassay buffer was added to the lysates. The plates were incubated at 23 °C for 90 min, followed by the addition of 25 µl of Nano-Glo® reagent consisting of Nano-Glo® Luciferase Assay Substrate mixed with 1X immunoassay buffer. Luminescence was measured using a plate-reading luminometer.
# All 96-well assay plates were read using a GloMax® 96 Microplate Luminometer from Promega. The instrument was set to 0.5 s integration time. In order to obtain net change of signal, the reagent background values (signal from the well containing all reagent except primary antibodies) were subtracted from the sample values. To plot and analyze the data, Microsoft Excel and GraphPad Prism® Software were used. IC50 values were determined by using a nonlinear regression fit to a sigmoidal dose response (variable slope).
# [1] = Fulvestrant 0.0976562 nM, MCF-7, Fig 7c
# [2] = Fulvestrant 0.195312 nM, MCF-7, Fig 7c
# [3] = Fulvestrant 0.390625 nM, MCF-7, Fig 7c
# [4] = Fulvestrant 0.78125 nM, MCF-7, Fig 7c
# [5] = Fulvestrant 1.5625 nM, MCF-7, Fig 7c
# [6] = Fulvestrant 3.125 nM, MCF-7, Fig 7c
# [7] = Fulvestrant 6.25 nM, MCF-7, Fig 7c
# [8] = Fulvestrant 25 nM, MCF-7, Fig 7c
# [9] = Fulvestrant 50 nM, MCF-7, Fig 7c
# [10] = Fulvestrant 100 nM, MCF-7, Fig 7c
structure (smiles),measurement,setting,value
C[C@]12CC[C@@H]3c4ccc(O)cc4C[C@@H](CCCCCCCCC[S+]([O-])CCCC(F)(F)C(F)(F)F)[C@H]3[C@@H]1CC[C@@H]2O (some centres unmarked) [Fulvestrant],Average Total ER protein (%),"0.0976562 nM, MCF-7, Fig 7b",100%
same,Raw data ER,"0.0976562 nM, MCF-7, Fig 7b",1203000 and 1328000
same,Subtract reagent background ER,"0.0976562 nM, MCF-7, Fig 7b",1167700 and 974100 and 1096600
same,Total ER protein (%),"0.0976562 nM, MCF-7, Fig 7b",102.1% and 102.0%
same,Raw data ER,"0.195312 nM, MCF-7, Fig 7b",1310000 and 1183000 and 1306000
same,Subtract reagent background ER,"0.195312 nM, MCF-7, Fig 7b",1076600 and 955300 and 1077400
same,Total ER protein (%),"0.195312 nM, MCF-7, Fig 7b",94.2% and 100.2%
same,Average Total ER protein (%),"0.390625 nM, MCF-7, Fig 7b",88%
same,Raw data ER,"0.390625 nM, MCF-7, Fig 7b",1176000 and 1121000
same,Subtract reagent background ER,"0.390625 nM, MCF-7, Fig 7b",945500 and 891700 and 1008700
same,Total ER protein (%),"0.390625 nM, MCF-7, Fig 7b",82.7% and 87.9% and 93.8%
same,Average Total ER protein (%),"0.78125 nM, MCF-7, Fig 7b",73%
same,Raw data ER,"0.78125 nM, MCF-7, Fig 7b",1017000 and 962500 and 1057000
same,Subtract reagent background ER,"0.78125 nM, MCF-7, Fig 7b",788000 and 733700 and 828700
same,Total ER protein (%),"0.78125 nM, MCF-7, Fig 7b",68.9% and 72.3% and 77.1%
same,Average Total ER protein (%),"1.5625 nM, MCF-7, Fig 7b",52%
same,Raw data ER,"1.5625 nM, MCF-7, Fig 7b",787000 and 772400 and 799700
same,Subtract reagent background ER,"1.5625 nM, MCF-7, Fig 7b",564400 and 548300 and 571400
same,Total ER protein (%),"1.5625 nM, MCF-7, Fig 7b",49.4% and 54.1% and 53.2%
same,Average Total ER protein (%),"3.125 nM, MCF-7, Fig 7b",36%
same,Raw data ER,"3.125 nM, MCF-7, Fig 7b",594200 and 628300
same,Subtract reagent background ER,"3.125 nM, MCF-7, Fig 7b",405200 and 370300 and 399100
same,Total ER protein (%),"3.125 nM, MCF-7, Fig 7b",35.4% and 36.5% and 37.1%
same,Average Total ER protein (%),"6.25 nM, MCF-7, Fig 7b",29%
same,Raw data ER,"6.25 nM, MCF-7, Fig 7b",540300 and 521900
same,Subtract reagent background ER,"6.25 nM, MCF-7, Fig 7b",294500 and 313200
same,Total ER protein (%),"6.25 nM, MCF-7, Fig 7b",27.5% and 29.0% and 29.1%
same,Average Total ER protein (%),"25 nM, MCF-7, Fig 7b",23%
same,Raw data ER,"25 nM, MCF-7, Fig 7b",474000 and 455500 and 481300
same,Subtract reagent background ER,"25 nM, MCF-7, Fig 7b",248500 and 229500 and 255100
same,Total ER protein (%),"25 nM, MCF-7, Fig 7b",21.7% and 22.6% and 23.7%
same,Average Total ER protein (%),"50 nM, MCF-7, Fig 7b",22%
same,Raw data ER,"50 nM, MCF-7, Fig 7b",467500 and 453000 and 467700
same,Subtract reagent background ER,"50 nM, MCF-7, Fig 7b",244000 and 227100 and 240600
same,Total ER protein (%),"50 nM, MCF-7, Fig 7b",21.3% and 22.4%
same,Average Total ER protein (%),"100 nM, MCF-7, Fig 7b",21%
same,Raw data ER,"100 nM, MCF-7, Fig 7b",455900 and 441400 and 453000
same,Subtract reagent background ER,"100 nM, MCF-7, Fig 7b",231900 and 220300 and 227600
same,Total ER protein (%),"100 nM, MCF-7, Fig 7b",20.3% and 21.7% and 21.2%
same,Average ER protein (%),[1],104.6%
same,Raw data ER,[1],1438000 and 1444000 and 1315000
same,Subtract reagent background ER,[1],1210700 and 1216700 and 1087700
same,protein (%) ER,[1],106.1% and 108.4% and 99.4%
same,Average ER protein (%),[2],107.5%
same,Raw data ER,[2],1431000 and 1445000 and 1414000
same,Subtract reagent background ER,[2],1204100 and 1218100 and 1187100
same,protein (%) ER,[2],105.5% and 108.5% and 108.4%
same,Average ER protein (%),[3],98.2%
same,Raw data ER,[3],1290000 and 1346000 and 1340000
same,Subtract reagent background ER,[3],1063550 and 1119550 and 1113550
same,protein (%) ER,[3],93.2% and 99.7% and 101.7%
same,Average ER protein (%),[4],82.3%
same,Raw data ER,[4],1111000 and 1176000
same,Subtract reagent background ER,[4],884650 and 927650 and 949650
same,protein (%) ER,[4],77.5% and 82.6% and 86.7%
same,Average ER protein (%),[5],59.5%
same,Raw data ER,[5],890700 and 898000 and 891300
same,Subtract reagent background ER,[5],663400 and 670700 and 664000
same,protein (%) ER,[5],58.2% and 59.7% and 60.7%
same,Average ER protein (%),[6],41.1%
same,Raw data ER,[6],677900 and 688400 and 691000
same,Subtract reagent background ER,[6],452050 and 462550 and 465150
same,protein (%) ER,[6],39.6% and 41.2% and 42.5%
same,Average ER protein (%),[7],31.0%
same,Raw data ER,[7],573300 and 576800 and 566100
same,Subtract reagent background ER,[7],351400 and 340700
same,protein (%) ER,[7],30.5% and 31.3% and 31.1%
same,Average ER protein (%),[8],24.2%
same,Raw data ER,[8],499600 and 500900 and 484100
same,Subtract reagent background ER,[8],275200 and 276500 and 259700
same,protein (%) ER,[8],24.1% and 24.6% and 23.7%
same,Average ER protein (%),[9],22.7%
same,Raw data ER,[9],476500 and 482700 and 473700
same,Subtract reagent background ER,[9],253450 and 259650 and 250650
same,protein (%) ER,[9],22.2% and 23.1% and 22.9%
same,Average ER protein (%),[10],20.4%
same,Raw data ER,[10],453900 and 451400 and 438800
same,Subtract reagent background ER,[10],234150 and 231650 and 219050
same,protein (%) ER,[10],20.5% and 20.6% and 20.0%
same,lowering of total ER protein level,"MCF-7 cells, titration",over 80%
